Tested on: S. aureus biofilm
Assay: In-vitro S. aureus biofilm model, treatment with oils of various polarity
Format: cell-based
Details: oils with log P within vs outside 0.5 to 2.0

Compound | antibacterial activity against biofilms (log reduction of bacteria vs. moist control, FIG. 1)
O=C(O)c1ccccc1 [Benzoic Acid] | exhibited some antibacterial activity against biofilms
OCc1ccccc1 [Benzyl Alcohol] | exhibited some antibacterial activity against biofilms
CCOC(C)=O [Ethyl Acetate] | exhibited some antibacterial activity against biofilms
CCOC(=O)c1cc(O)c(O)c(O)c1 [Ethyl Gallate] | exhibited some antibacterial activity against biofilms
CCCCCCCCCCCC(=O)OCC(O)CO (centres unmarked) [MONOMULS®, glyceryl monolaurate] | did not exhibit very much antimicrobial activity against biofilms
CCCOC(=O)c1cc(O)c(O)c(O)c1 [Propyl Gallate] | exhibited some antibacterial activity against biofilms
Oc1cccc(O)c1 [Resorcinol] | exhibited some antibacterial activity against biofilms
CC(=O)OCC(COC(C)=O)OC(C)=O [glyceryl triacetate] | did not exhibit very much antimicrobial activity against biofilms
CCCCCCCCCCCCCC(=O)OC(C)C [isopropyl myristate] | did not exhibit very much antimicrobial activity against biofilms
COC(=O)c1ccccc1 [methyl benzoate] | did not exhibit very much antimicrobial activity against biofilms
CCCCCCCC/C=C\CCCCCCCC(=O)O [oleic acid] | did not exhibit very much antimicrobial activity against biofilms
diethyl acetate | did not exhibit very much antimicrobial activity against biofilms

Tested on: not given
Assay: not given
Details: reference standards with known log P values used for HPLC calibration; cited from earlier work

Compound | log P
O=C(C=Cc1ccccc1)OCc1ccccc1 [Benzyl cinnamate] | 4.06
CCCCOC(=O)CCCCCCCCC(=O)OCCCC [Dibutyl sebacate] | 6.3
